ChEMBL document CHEMBL1201862, “PubChem BioAssay data set” (2004)
The source made the active and inactive calls.

Legend:
[1] = molecular target: T1, Protein RecA (Mycobacterium tuberculosis, UniProt P9WHJ3); test: Fluorescence Cell-Free Homogeneous Dose Retest to Identify Inhibitors of RecA-Intein Splicing Activity. [Related pubchem assays (depositor defined):AID2097, AID2223, AID489010, AID492950]; assay type: functional
T1 sequence (P9WHJ3 whole entry): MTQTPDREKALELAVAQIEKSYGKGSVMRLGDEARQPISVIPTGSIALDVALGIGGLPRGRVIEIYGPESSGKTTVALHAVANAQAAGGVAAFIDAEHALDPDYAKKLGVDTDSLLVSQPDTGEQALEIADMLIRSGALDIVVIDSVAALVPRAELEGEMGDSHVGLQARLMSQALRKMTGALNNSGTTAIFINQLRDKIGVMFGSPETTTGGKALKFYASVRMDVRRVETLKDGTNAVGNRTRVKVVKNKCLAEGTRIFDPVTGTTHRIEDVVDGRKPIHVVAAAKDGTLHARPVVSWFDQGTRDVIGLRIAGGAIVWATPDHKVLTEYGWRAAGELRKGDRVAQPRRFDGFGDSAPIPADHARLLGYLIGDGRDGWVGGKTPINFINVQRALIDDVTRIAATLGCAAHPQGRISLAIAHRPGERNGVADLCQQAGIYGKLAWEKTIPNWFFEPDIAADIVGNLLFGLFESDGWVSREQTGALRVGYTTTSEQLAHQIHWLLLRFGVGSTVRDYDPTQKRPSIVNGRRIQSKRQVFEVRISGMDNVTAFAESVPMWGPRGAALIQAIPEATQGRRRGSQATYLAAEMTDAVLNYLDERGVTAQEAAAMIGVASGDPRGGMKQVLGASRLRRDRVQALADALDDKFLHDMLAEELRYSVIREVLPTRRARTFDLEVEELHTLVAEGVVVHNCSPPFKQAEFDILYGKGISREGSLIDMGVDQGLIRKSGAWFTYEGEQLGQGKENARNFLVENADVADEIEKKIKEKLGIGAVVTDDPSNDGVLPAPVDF

[2] = test system: Vero; test: Vero E6 cell cytotoxicity, dose response, cytotoxicity control (AID 540298); assay type: functional; settings: Chlorocebus sabaeus
[3] = test system: MDCK; test: MDCK cell cytotoxicity, dose response, cytotoxicity control (AID 540296); assay type: functional; settings: Canis lupus familiaris
[4] = molecular target: Nonstructural protein 1 (Influenza A virus, UniProt Q194T2); assay type: functional, Influenza A virus (A/California/07/2009(H1N1))
Chain of Nonstructural protein 1 (Q194T2 whole entry): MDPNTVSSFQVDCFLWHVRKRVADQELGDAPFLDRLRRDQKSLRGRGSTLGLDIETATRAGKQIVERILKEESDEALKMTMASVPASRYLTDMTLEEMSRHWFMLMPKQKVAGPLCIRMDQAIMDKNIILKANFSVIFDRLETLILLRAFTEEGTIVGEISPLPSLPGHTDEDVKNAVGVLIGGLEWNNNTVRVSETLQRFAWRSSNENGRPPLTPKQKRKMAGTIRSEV

[5] = molecular target: T2, Replicative DNA helicase DnaB (Mycobacterium tuberculosis, UniProt P9WMR3); test: DnaB intein splicing inhibitors, dose response, biochemical, cell-free fluorescence (AID 449749); assay type: functional
T2 sequence (P9WMR3 whole entry): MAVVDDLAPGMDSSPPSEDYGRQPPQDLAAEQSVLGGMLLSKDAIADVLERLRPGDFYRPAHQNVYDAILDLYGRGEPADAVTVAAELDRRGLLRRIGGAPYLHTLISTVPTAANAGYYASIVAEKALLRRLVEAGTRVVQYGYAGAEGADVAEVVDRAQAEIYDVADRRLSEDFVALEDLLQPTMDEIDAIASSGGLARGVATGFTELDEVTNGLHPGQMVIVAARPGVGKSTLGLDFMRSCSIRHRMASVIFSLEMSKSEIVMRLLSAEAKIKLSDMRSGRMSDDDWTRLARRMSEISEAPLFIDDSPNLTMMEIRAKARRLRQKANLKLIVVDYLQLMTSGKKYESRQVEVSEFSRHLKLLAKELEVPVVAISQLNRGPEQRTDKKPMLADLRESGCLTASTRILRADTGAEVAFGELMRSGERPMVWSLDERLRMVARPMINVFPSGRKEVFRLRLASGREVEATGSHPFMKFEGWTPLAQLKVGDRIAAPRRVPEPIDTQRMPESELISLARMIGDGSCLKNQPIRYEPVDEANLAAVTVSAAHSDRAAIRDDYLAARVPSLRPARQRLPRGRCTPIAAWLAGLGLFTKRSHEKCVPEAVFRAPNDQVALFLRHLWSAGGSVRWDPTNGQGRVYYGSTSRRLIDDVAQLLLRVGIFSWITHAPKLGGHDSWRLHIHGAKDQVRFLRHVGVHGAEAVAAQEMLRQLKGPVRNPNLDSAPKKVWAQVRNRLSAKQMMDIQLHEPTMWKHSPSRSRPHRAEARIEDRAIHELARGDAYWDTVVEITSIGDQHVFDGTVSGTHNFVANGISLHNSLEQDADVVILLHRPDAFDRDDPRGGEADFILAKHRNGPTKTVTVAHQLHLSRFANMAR

[6] = test system: MDCK; test: antiviral activity against H1N1 influenza, dose response, cell-based, strain KY136 (AID 540257); assay type: functional; settings: Canis lupus familiaris
[7] = test system: HEK293; test: SAR Analysis of small molecule inhibitors of T-cell specific antigen receptor-induced NF-kB activation in a HEK-293T cell line using a luminescence assay - Set 2. [Related pubchem assays (depositor defined):AID435003, AID435012, AID489026]; assay type: functional, cell-based; settings: Homo sapiens
[8] = test system: HEK293; test: HEK293T cell viability loss, resazurin readout – resazurin fluorescence, cytotoxicity control for NF-kB activator project, SAR follow-up (AID 493251); assay type: functional, cell-based; settings: Homo sapiens
[9] = test system: Jurkat; test: SAR Analysis of small molecule inhibitors of T-cell specific antigen receptor-induced NF-kB activation in a Jurkat cell line using a luminescence assay - Set 2. [Related pubchem assays (depositor defined):AID435003, AID435012, AID465]; assay type: functional, cell-based; settings: Homo sapiens
[10] = molecular target: T3, Beta-adrenergic receptor kinase 1 (Homo sapiens, UniProt P25098); test: aptamer displacement from bead-bound GRK2 – biochemical, cherry pick 1, bead flow cytometry, dose response (AID 504500)
T3 sequence (P25098 whole entry): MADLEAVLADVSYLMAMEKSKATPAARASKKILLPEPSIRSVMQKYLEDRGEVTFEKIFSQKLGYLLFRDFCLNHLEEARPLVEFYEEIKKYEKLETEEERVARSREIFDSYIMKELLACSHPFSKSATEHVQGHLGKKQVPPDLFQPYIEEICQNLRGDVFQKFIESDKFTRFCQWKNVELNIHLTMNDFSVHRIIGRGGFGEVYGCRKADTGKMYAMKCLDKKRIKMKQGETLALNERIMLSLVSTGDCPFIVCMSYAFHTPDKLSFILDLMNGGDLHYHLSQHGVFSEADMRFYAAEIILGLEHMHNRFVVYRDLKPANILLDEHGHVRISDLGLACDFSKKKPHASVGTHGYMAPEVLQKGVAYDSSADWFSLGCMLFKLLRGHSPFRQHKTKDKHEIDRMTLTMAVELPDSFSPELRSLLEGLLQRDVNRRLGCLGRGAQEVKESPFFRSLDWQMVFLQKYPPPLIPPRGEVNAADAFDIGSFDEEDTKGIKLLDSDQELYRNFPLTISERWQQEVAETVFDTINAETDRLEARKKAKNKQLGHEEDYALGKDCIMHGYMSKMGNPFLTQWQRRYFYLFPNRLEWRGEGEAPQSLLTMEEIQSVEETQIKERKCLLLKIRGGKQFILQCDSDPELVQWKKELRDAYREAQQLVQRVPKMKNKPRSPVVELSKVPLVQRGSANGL

[11] = molecular target: T3, Beta-adrenergic receptor kinase 1; test: blockers of aptamer binding to GRK2 – biochemical, flow cytometry beads, FAM-aptamer, powder set 1, dose response (AID 588720)
[12] = molecular target: T4, Small ubiquitin-related modifier 1 (Homo sapiens, UniProt P63165); test: SUMO1 protein interaction blockers, potency – biochemical, fluorescence polarization, uHTS hits, dose response (AID 624382); assay type: functional; settings: read-out: IC50_Mean
T4 sequence (P63165 whole entry): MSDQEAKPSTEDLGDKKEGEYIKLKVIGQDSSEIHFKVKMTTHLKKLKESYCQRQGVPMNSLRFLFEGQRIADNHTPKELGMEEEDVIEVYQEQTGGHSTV

[13] = molecular target: T4, Small ubiquitin-related modifier 1; test: SUMO1 protein-protein binding blockers, potency – biochemical, FRET, dose response (AID 624383); assay type: functional; settings: read-out: IC50_Mean
[14] = test system: BJ; test: BJ-TERT fibroblast viability loss – cell-based, RAS-independent, luminescence, dose response (AID 1933); assay type: functional; settings: Homo sapiens
[15] = test system: BJ; test: cells; assay type: functional, cell-based; settings: Homo sapiens
[16] = molecular target: T5, Heat shock factor protein 1 (Mus musculus, UniProt P38532); test: decrease of HSF1-responsive luciferase luminescence – cell-based, NIH3T3, dose retest, confirmation (AID 2382); assay type: functional;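 further: NIH3T3 fibroblasts with HSF1-driven luciferase reporter stressed by proteasome inhibitor MG132; luminescence from HSF1-driven luciferase expression after 8 hours of MG132 stress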
T5 sequence (P38532 whole entry): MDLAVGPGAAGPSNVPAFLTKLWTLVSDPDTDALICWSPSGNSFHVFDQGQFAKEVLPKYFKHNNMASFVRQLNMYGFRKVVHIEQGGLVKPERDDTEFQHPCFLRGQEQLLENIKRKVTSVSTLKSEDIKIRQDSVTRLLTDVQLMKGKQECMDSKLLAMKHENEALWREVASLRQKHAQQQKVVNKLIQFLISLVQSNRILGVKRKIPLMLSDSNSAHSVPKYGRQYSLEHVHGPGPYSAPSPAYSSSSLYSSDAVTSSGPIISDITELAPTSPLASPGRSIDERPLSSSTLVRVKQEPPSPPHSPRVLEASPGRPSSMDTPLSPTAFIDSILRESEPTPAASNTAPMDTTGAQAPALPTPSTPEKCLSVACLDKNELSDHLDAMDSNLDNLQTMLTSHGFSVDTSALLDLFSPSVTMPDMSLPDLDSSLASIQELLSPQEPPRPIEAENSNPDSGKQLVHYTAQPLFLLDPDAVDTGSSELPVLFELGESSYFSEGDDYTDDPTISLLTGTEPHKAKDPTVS

[17] = luciferase reporter signal suppression in cells – H4 neuroglioma cells, luminescence, dose response (AID 1990); assay type: functional, cell-based
[18] = test system: BJ; test: growth inhibition of engineered Ras-driven BJ cells – cell-based, alamar blue fluorescence, cherrypicked samples, dose response (AID 2631); assay type: functional; settings: Homo sapiens;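 further: confirmatory dose-response assay in RAS-dependent BJ fibroblasts engineered with TERT, LT and ST, with cytotoxicity read by fluorescence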
[19] = alpha-synuclein stem-loop luciferase translation blockers – H4 neuroglioma cells, luminescence, confirmation (AID 1988); assay type: functional, cell-based
[20] = Luminescence Cell-Based Dose Response HTS to Identify Inhibitors of 5'UTR Stem-Loop Driven Prion Protein mRNA Translation in H4 Neuroglioblastoma Cells. [Related pubchem assays: 1827 (Project Summary), 1813 (Primary HTS)]; assay type: functional
[21] = DRD fibroblast viability loss – cell-based, non-viral oncogenic, luminescence, dose response (AID 1934); assay type: functional; settings: Homo sapiens
[22] = test system: BJ; test: BJ-TERT-LT-ST fibroblast viability loss – cell-based, RAS-independent, luminescence, dose response (AID 1935); assay type: functional; settings: Homo sapiens;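 further: BJ fibroblasts immortalized with TERT plus LT and ST oncogenes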

In the case of `COc1cccc(/C=C2\SC(=S)N(CCCC(=O)N3CCCC3)C2=O)c1`, the EC50 [1] is reported as > 380 µM (inactive), the CC50 [2] is reported as 12.8 µM (active) and the CC50 [3] is reported as > 40 µM (active). For the same molecule, the IC50 [4] was 66.8 µM (active), the AC50 [5] was 71.1 µM (active) and the IC50 [6] was 32.9 µM (active).

With `COc1ccccc1C(NC(C)=O)c1ccc2cccnc2c1O` (centres undefined) the IC50 [7] was 7.96 µM (active), the IC50 [8] was 7.73 µM (active) and the IC50 [9] was 7.09 µM (active).

With `CC(CS(=O)(=O)c1ccc2c(c1)NC(=O)CS2)C(=O)NCc1ccccc1Cl` (centres undefined) the EC50 [10] was 7.53 µM (active), the EC50 [11] was 0.638 µM (active) and the IC50 [12] was > 66.6 µM (inactive). The IC50 [13] was 4.08 µM (active).

With `COc1cc(C2CC(c3cccs3)=NN2C(=O)CCl)ccc1OC(F)F` (centres undefined) the EC50 [14] was 0.625 µM (active), the EC50 [1] was 1.13 µM (active) and the EC50 [15] was 2.56 µM (active). The EC50 [16] was 3.04 µM (active), the EC50 [17] was > 120 µM (not active) and the EC50 [18] was 0.608 µM (active). For the same molecule, the EC50 [19] was 8.46 µM (active), the EC50 [20] was 11 µM (active) and the AC50 [5] was 1.51 µM (active). For the same molecule, the EC50 [21] was 1.95 µM (active) and the EC50 [22] was 4.47 µM (inconclusive).
